Activity calls are given as the source filed them. The rule behind the calls is not given here.
Columns and labels:
[1] = test system: Mus musculus; assay: Antidepressant activity in overnight fasted Mus musculus (mouse) assessed as decrease in immobility time at 100 mg/kg, ip administered 60 min prior to testing measured for 5 min by tail suspension test (reference value: 169.8 +/- 13 secs); type: functional; conditions: route intraperitoneal
[2] = test system: Mus musculus; assay: Antidepressant activity in overnight fasted Mus musculus (mouse) assessed as decrease in immobility time at 10 mg/kg, ip administered 60 min prior to testing measured for 5 min by tail suspension test (reference value: 169.8 +/- 13 secs); type: functional; conditions: route intraperitoneal
[3] = test system: Mus musculus; assay: Antidepressant activity in overnight fasted Mus musculus (mouse) assessed as decrease in immobility time at 30 mg/kg, ip administered 60 min prior to testing measured for 5 min by tail suspension test (reference value: 169.8 +/- 13 secs); type: functional; conditions: route intraperitoneal
[4] = species: Mus musculus; assay: Behavioral effect in Mus musculus (mouse) assessed as effect on alertness after 3 hr; type: functional, organism-based
[5] = test system: Mus musculus; assay: Acute toxicity in Mus musculus Swiss albino (mouse) up to 2000 mg/kg, ip measured for 1 month; type: organism-based; parameters: dose 2000 mg/kg, route intraperitoneal; conditions: in vivo, 730.5 h

CCN(CC)CCSc1n[nH]c(-c2ccc(OC)cc2)n1
Time [1]: 103.8 s
Time [2]: 139 s
Time [3]: 118.5 s
Activity [4]: inactive
Activity [5]: Non-toxic

Cc1ccc(-c2nc(SCCN(C3CCCCC3)C3CCCCC3)n[nH]2)cc1
Time [1]: 150 s
Time [2]: 165 s
Time [3]: 151.3 s
Activity [4]: inactive
Activity [5]: Non-toxic

CCN(CC)CCSc1n[nH]c(-c2ccccc2O)n1
Time [1]: 137.3 s
Time [2]: 173.8 s
Time [3]: 163.5 s
Activity [4]: inactive
Activity [5]: Non-toxic

CCN(CC)CCSc1n[nH]c(-c2ccc(Cl)cc2)n1
Time [1]: 103.8 s
Time [2]: 129.7 s
Time [3]: 115 s
Activity [4]: inactive
Activity [5]: Non-toxic

CCN(CC)CCSc1n[nH]c(-c2ccc(C)cc2)n1
Time [1]: 151.2 s
Time [2]: 178.3 s
Time [3]: 168.2 s
Activity [4]: inactive
Activity [5]: Non-toxic

Oc1ccccc1-c1nc(SCCN(C2CCCCC2)C2CCCCC2)n[nH]1
Time [1]: 150 s
Time [2]: 162.5 s
Time [3]: 149.3 s
Activity [4]: inactive
Activity [5]: Non-toxic

COc1ccc(-c2nc(SCCN(C)C)n[nH]2)cc1
Time [1]: 103.8 s
Time [2]: 116.3 s
Time [3]: 111 s
Activity [4]: inactive
Activity [5]: Non-toxic

Clc1ccc(-c2nc(SCCN(C3CCCCC3)C3CCCCC3)n[nH]2)c(Cl)c1
Time [1]: 90.5 s
Time [2]: 96.5 s
Time [3]: 94.5 s
Activity [4]: inactive
Activity [5]: Non-toxic

CN(C)CCSc1n[nH]c(-c2ccccc2)n1
Time [1]: 102 s
Time [2]: 117.2 s
Time [3]: 110.3 s
Activity [4]: inactive
Activity [5]: Non-toxic

CN(C)CCSc1n[nH]c(-c2ccccc2O)n1
Time [1]: 150 s
Time [2]: 164.8 s
Time [3]: 150.8 s
Activity [4]: inactive
Activity [5]: Non-toxic

Cc1ccc(-c2nc(SCCN(C)C)n[nH]2)cc1
Time [1]: 152.8 s
Time [2]: 172.8 s
Time [3]: 168.2 s
Activity [4]: inactive
Activity [5]: Non-toxic

CCN(CC)CCSc1n[nH]c(-c2ccccc2)n1
Time [1]: 108.3 s
Time [2]: 145.8 s
Time [3]: 120.7 s
Activity [4]: inactive
Activity [5]: Non-toxic

CN(C)CCSc1n[nH]c(-c2ccc(Cl)cc2Cl)n1
Time [1]: 96.2 s
Time [2]: 109 s
Time [3]: 101.8 s
Activity [4]: inactive
Activity [5]: Non-toxic

c1ccc(-c2nc(SCCN(C3CCCCC3)C3CCCCC3)n[nH]2)cc1
Time [1]: 101.7 s
Time [2]: 117 s
Time [3]: 109.7 s
Activity [4]: inactive
Activity [5]: Non-toxic

COc1ccc(-c2nc(SCCN(C3CCCCC3)C3CCCCC3)n[nH]2)cc1
Time [1]: 94.8 s
Time [2]: 101.3 s
Time [3]: 96.3 s
Activity [4]: inactive
Activity [5]: Non-toxic

CCN(CC)CCSc1n[nH]c(-c2ccc(O)cc2)n1
Time [1]: 151.8 s
Time [2]: 171.8 s
Time [3]: 167.3 s
Activity [4]: inactive
Activity [5]: Non-toxic

CN(C)CCSc1n[nH]c(-c2ccc(O)cc2)n1
Time [1]: 149 s
Time [2]: 161.2 s
Time [3]: 150.3 s
Activity [4]: inactive
Activity [5]: Non-toxic

CN(C)CCCN1c2ccccc2CCc2ccccc21 [IMIPRAMINE]
Time [2]: 95.8 s

CN(C)CCSc1n[nH]c(-c2ccc(Cl)cc2)n1
Time [1]: 96 s
Time [2]: 109.2 s
Time [3]: 102.2 s
Activity [4]: inactive
Activity [5]: Non-toxic

CCN(CC)CCSc1n[nH]c(-c2ccc(Cl)cc2Cl)n1
Time [1]: 103.2 s
Time [2]: 121.8 s
Time [3]: 110 s
Activity [4]: inactive
Activity [5]: Non-toxic

Oc1ccc(-c2nc(SCCN(C3CCCCC3)C3CCCCC3)n[nH]2)cc1
Time [1]: 112.7 s
Time [2]: 157.5 s
Time [3]: 126.2 s
Activity [4]: inactive
Activity [5]: Non-toxic

Clc1ccc(-c2nc(SCCN(C3CCCCC3)C3CCCCC3)n[nH]2)cc1
Time [1]: 89.2 s
Time [2]: 96.8 s
Time [3]: 94.8 s
Activity [4]: inactive
Activity [5]: Non-toxic
